US7714018B2, “Heterocyclic antiviral compounds” (Roche Palo Alto LLC, priority 2004, dated 2010)
Where a name gives a salt, the structure may show the parent alone.

Legend:
[1] = molecular target: T1, Human CCR5 receptor (Homo sapiens, UniProt P51681); assay: Human CCR5 receptor-ligand binding assay (125I RANTES displacement); details: 0.1 nM 125I RANTES, CHO-Gα16-hCCR5 cells, RT 2 h
T1 construct: expressed in transfected cells
Excerpt: Human CCR5 receptor (Genebank ID: 29169292) was cloned into mammalian expression vector, pTarget (Promega). The construct was transfected into CHO-Gα16 cells by using Fugene Reagent (Roche). Clones were selected under antibiotic pressure (G418 and Hygromycin) and sorted 4 times with a fluorescence activates cell sorter and a monoclonal antibody specific for CCR5 receptor (BD Biosciences Pharmigen, Mab 2D7, Cat. No. 555993). The clone with highest expression (100,000 copies per cell) was chosen for the binding assays.
Adherent cells in […] tissue culture flask (˜90% confluent) were harvested using 1 mM EDTA in PBS (phosphate-buffered saline) without Ca^2+ and Mg^2+. Cells were washed twice with PBS containing no Ca^2+ and Mg^2+. CHO-Gα16-hCCR5 cells were then resuspended (1×10^6/ml) in ice cold binding buffer (50 mM HEPES, 1 mM CaCl2, 5 mM MgCl2, 0.5% BSA, 0.05% NaN3, pH 7.24), pH 7.4), supplemented with freshly made 0.5% BSA and 0.05% NaN3.
Eighty μl CHO-Gα16-hCCR5 (1×10^6/ml) cells were added to 96 well plates. All dilutions were made in binding buffer (50 mM HEPES, 1 mM CaCl2, 5 mM MgCl2, 0.5% BSA, 0.05% NaN3, pH 7.24).
The plates were incubated on a cell shaker at RT for 2 h with a final concentration of 0.1 nM ^125I RANTES or ^125I MIP-1α or ^125I MIP-1β. The compound dilutions were made in PBS, 1% BSA. Total reaction volume was 100 μl per well. The test compounds were added to the cells prior to the addition of radioligand.
After incubation, the cells were harvested onto GF/C filter plates using Packard cell harvester. Filters were pretreated with 0.3% PEI/0.2% BSA for 30 min. The filter plate was washed rapidly 5 times with 25 mM HEPES, 500 mM NaCl, 1 mM CaCl2 and 5 mM MgCl2 adjusted to pH 7.1. Plates were dried in oven (70° C.) for 20 min, added with 40 μl scintillation fluid and sealed with Packard TopSeal-A. Packard Top Count was used to measure of the radioactivity for 1 min per well.
Total binding was determined with control wells added with radioisotope and buffer and the non-specific binding was determined using an excess cold RANTES to some of the control wells. Specific binding was determined by subtracting the non-specific form total binding. Results are expressed as the percentage of specific ^125I RANTES binding. IC50 values were determined using varying concentrations of the test ligand in triplicates and the data was analyzed using GraphPad Prism (GraphPad, San Diego, Calif.).

T1 sequence (P51681 whole entry): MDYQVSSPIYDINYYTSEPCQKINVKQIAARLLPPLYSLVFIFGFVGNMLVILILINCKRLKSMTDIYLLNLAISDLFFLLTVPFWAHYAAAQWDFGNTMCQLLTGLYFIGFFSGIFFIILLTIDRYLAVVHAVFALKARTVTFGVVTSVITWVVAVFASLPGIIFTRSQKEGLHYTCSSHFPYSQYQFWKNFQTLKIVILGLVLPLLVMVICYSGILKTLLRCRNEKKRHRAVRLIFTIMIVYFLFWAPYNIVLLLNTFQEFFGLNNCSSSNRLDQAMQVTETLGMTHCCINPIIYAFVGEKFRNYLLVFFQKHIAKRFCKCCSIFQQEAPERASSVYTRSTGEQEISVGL

Row | Compound | melting point [°C] | IC50 [1] [µM]
1 | Cc1cccc(C)c1C(=O)N1C[C@H]2CN(CCC(NC(=O)C3CCCC3)c3ccccc3)C[C@H]2C1 (stereo partly drawn) [Compound I-3, Cyclopentanecarboxylic acid {3-[5-(2,6-dimethyl-benzoyl)-hexahydro-pyrrolo[3,4-c]pyrrol-2-yl]-1-phenyl-propyl}-amide] | 60.9 to 63.9 | –
2 | Cc1ncnc(C)c1C(=O)N1CC2CN(CCC(NC(=O)C3CCCC3)c3ccccc3)CC2C1 (stereo not drawn) [Compound I-29, Cyclopentanecarboxylic acid {3-[5-(4,6-dimethyl-pyrimidine-5-carbonyl)-hexahydro-pyrrolo[3,4-c]pyrrol-2-yl]-1-phenyl-propyl}-amide] | 48 to 49 | 0.016
3 | Cc1ccnc(C)c1C(=O)N1CC2CN(CC[C@H](NC(=O)C3CCCC3)c3ccccc3)CC2C1 (stereo partly drawn) [Compound I-78] | 68.8 to 73.6 | 0.037
4 | Cc1cccc(C)c1C(=O)N1CC2CN(C(CO)CC(NC(=O)C3CCCC3)c3ccccc3)CC2C1 (stereo not drawn) [Compound I-360, Cyclopentanecarboxylic acid {3-[5-(2,6-dimethyl-benzoyl)-hexahydro-pyrrolo[3,4-c]pyrrol-2-yl]-4-hydroxy-1-phenyl-butyl}-amide] | 78.9 to 84.9 | –
5 | Cc1ncnc(C)c1C(=O)N1CC2CN(CCC(NC(=O)C3CCC(F)(F)CC3)c3ccccc3)CC2C1 (stereo not drawn) [Compound I-435, 4,4-Difluoro-cyclohexanecarboxylic acid {3-[5-(4,6-dimethyl-pyrimidine-5-carbonyl)-hexahydro-pyrrolo[3,4-c]pyrrol-2-yl]-1-phenyl-propyl}-amide] | 131.8 to 133.2 | –
6 | Cc1ncnc(C)c1C(=O)N1CC2CN(C(C)CC(NC(=O)C3CCC(F)(F)CC3)c3ccccc3)CC2C1 (stereo not drawn) [Compound I-448, 4,4-Difluoro-cyclohexanecarboxylic acid {3-[5-(4,6-dimethyl-pyrimidine-5-carbonyl)-hexahydro-pyrrolo[3,4-c]pyrrol-2-yl]-1-phenyl-butyl}-amide] | 71.3 to 72.9 | –
7 | Cc1ncnc(C)c1C(=O)N1CC2CN(C(C)C[C@H](NC(=O)C3CCC(F)(F)CC3)c3ccccc3)CC2C1 (stereo partly drawn) [Compound I-449] | 86.4 to 87 | 0.001
8 | Cc1nc(OCC(=O)O)nc(C)c1C(=O)N1CC2CN(CC[C@H](NC(=O)C3CCCC3)c3ccccc3)CC2C1 (stereo partly drawn) [Compound I-466] | – | 0.011
9 | CC(=O)N1CCC(C(=O)N(CCCN2C[C@@H]3CN(C(=O)c4c(C)cccc4C)C[C@@H]3C2)c2ccc(C)c(Cl)c2)CC1 [II-1, 1-Acetyl-piperidine-4-carboxylic acid (3-chloro-4-methyl-phenyl)-{3-[5-(2,6-dimethyl-benzoyl)-hexahydro-pyrrolo[3,4-c]pyrrol-2-yl]-propyl}] | 58.1 to 65.2 | 0.0042
10 | CC(=O)N1CCC(C(=O)N(CCCN2CC3CN(C(=O)c4c(C)ccnc4C)CC3C2)c2ccc(C)c(Cl)c2)CC1 (stereo not drawn) [II-3, 1-Acetyl-piperidine-4-carboxylic acid (3-chloro-4-methyl-phenyl)-{3-[5-(2,4-dimethyl-pyridine-3-carbonyl)-hexahydro-pyrrolo[3,4-c]pyrrol-2-yl]-propyl}-amide] | 91.8 to 96.9 | 0.0184
11 | CC(=O)N1CCC(C(=O)N(CCC(C)N2CC3CN(C(=O)c4c(C)ccnc4C)CC3C2)c2ccc(C)c(Cl)c2)CC1 (stereo not drawn) [II-36, 1-Acetyl-piperidine-4-carboxylic acid (3-chloro-4-methyl-phenyl)-{3-[5-(2,4-dimethyl-pyridine-3-carbonyl)-hexahydro-pyrrolo[3,4-c]pyrrol-2-yl]-butyl}-amide] | 60.9 to 62.4 | –
12 | Cc1ccc(N(CCCN2C[C@@H]3CN(C(=O)c4c(C)ccnc4C)C[C@@H]3C2)C(=O)Nc2ccc(Cl)cc2)cc1 [II-203, 3-(4-Chloro-phenyl)-1-{3-[(3aS,6aR)-5-(2,4-dimethyl-pyridine-3-carbonyl)-hexahydro-pyrrolo[3,4-c]pyrrol-2-yl]-propyl}-1-p-tolyl-urea] | 60.5 to 62.5 | –
13 | Cc1ccc(N(CCCN2CC3CN(C(=O)c4c(C)cccc4C)CC3C2)C(=O)C2CCS(=O)(=O)CC2)cc1Cl (stereo not drawn) [II-279] | 101.3 to 102.7 | 0.0015
14 | Cc1ccc(N(CCCN2CC3CN(C(=O)c4c(C)ncnc4C)CC3C2)C(=O)C2CCN(C(=O)C(=O)O)CC2)cc1Cl (stereo not drawn) [II-303, [4-((3-Chloro-4-methyl-phenyl)-{3-[5-(4,6-dimethyl-pyrimidine-5-carbonyl)-hexahydro-pyrrolo[3,4-c]pyrrol-2-yl]-propyl}-carbamoyl)-piperidin-1-yl]-oxo-acetic acid, hydrochloride salt] | – | 0.102
15 | CCOC(=O)c1[nH]c(C)c(S(=O)(=O)N2CC3CN(CCCN(C(=O)C4CCN(C(C)=O)CC4)c4ccc(C)c(Cl)c4)CC3C2)c1C (stereo not drawn) [II-355] | – | 0.0027
